Data reported in patent US12285431B2, “Treatment of Rb-negative tumors using topoisomerase inhibitors in combination with cyclin dependent kinase 4/6 inhibitors” (G1 Therapeutics, Inc., priority 2014, dated 2025).
Like-named read-outs stand apart in the source and are kept apart here.

Key:
HS68 cells = assay: G1 arrest (cellular G1 and S-phase) assay, propidium iodide flow cytometry; format: cell-based, human
Method: HS68 cells (human skin fibroblast cell line (Rb-positive)) were stained with propidium iodide staining solution and run on Dako Cyan Flow Cytometer. The fraction of cells in G0-G1 DNA cell cycle versus the fraction in S-phase DNA cell cycle was determined using FlowJo 7.2.2 analysis.
The compounds listed in Table 1 were tested for their ability to arrest HS68 cells at the G1 phase of the cell cycle.

[1] = test system: A2058 (human metastatic melanoma cells, Rb-negative); assay: Cellular proliferation assay (CellTiter-Glo), A2058; format: cell-based; settings: A2058, 144 h, cell viability after six days
Method: (§1) Further cellular proliferation assays were conducted using the following cancer cell lines: MCF7 (breast adenocarcinoma—Rb-positive), ZR-75-1 (breast ductal carcinoma—Rb-positive), H69 (human small cell lung cancer—Rb-negative) cells, or A2058 (human metastatic melanoma cells—Rb-negative). These cells were seeded in Costar (Tewksbury, Massachusetts) 3093 96 well tissue culture treated white walled/clear bottom plates. Cells were treated with the compounds of Table 1 as nine point dose response dilution series from 10 uM to 1 nM. Cells were exposed to compounds and then cell viability was determined after either four (H69) or six (MCF7, ZR75-1, A2058) days as indicated using the CellTiter-Glo® luminescent cell viability assay (CTG; Promega, Madison, Wisconsin, United States of America) following the manufacturer's recommendations. Plates were read on BioTek (Winooski, Vermont) Syngergy2 multi-mode plate reader. The Relative Light Units (RLU) were plotted as a result of variable molar concentration and data was analyzed using Graphpad (LaJolla, California) Prism 5 statistical software to determine the EC50 for each compound.

[2] = test system: H69 (human small cell lung cancer, Rb-negative) cells; assay: Cellular proliferation assay (CellTiter-Glo), H69; format: cell-based; settings: NCI-H69, 96 h, cell viability after four days
Method: as §1

[3] = test system: MCF7 (breast adenocarcinoma, Rb-positive); assay: Cellular proliferation assay (CellTiter-Glo), MCF7; format: cell-based; settings: Homo sapiens, MCF7, 144 h, cell viability after six days
Method: as §1

[4] = Mouse pharmacokinetics (oral gavage / intravenous); format: in vivo, mice; settings: for AUC 0-inf (uM * h) i.v.: 10 mg/kg intravenous injection; for AUC (uM * h) p.o. / Cmax / Tmax (h) p.o. / t1/2 (h) p.o.: 30 mg/kg oral gavage
[5] = test system: ZR-75-1 (breast ductal carcinoma, Rb-positive); assay: Cellular proliferation assay (CellTiter-Glo), ZR-75-1; format: cell-based; settings: Homo sapiens, ZR-75-1, 144 h, cell viability after six days, read-out: ZR75-1 Cellular EC50
Method: as §1

[6] = test system: NCI-H69 SCLC xenograft (Rb-negative); format: in vivo
Description: An Rb-negative model of small cell lung cancer was used in the following example. Briefly, xenografts of National Cancer Institute (NCI) […] cells were grafted onto the mice (Athymic Nude (Crl:NU(NCr)-Foxn1^nu); 6-12 week old females) using the South Texas Accelerated Research Therapeutics (START) Cell-Based Xenograft (START-CBX) tumor model. H69 cells are human small cell lung cancer cells and are Rb-negative.
Data collected from the efficacy study included animal weights, observations and tumor dimensions. This information was used to determine agent tolerability based on weight change and gross physiologic changes and anticancer activity based on tumor growth delay or regression. The designated endpoint for this study was an individual tumor volume of 1 cm^3 or 60 days following treatment initiation.
Tumor fragments from NCI-H69 were harvested from host animals and implanted into immune-deficient mice and the study initiated at a mean tumor volume of approximately 150-250 mm^3.
Additional details of the study are outlined in Table 6 below. […] Tumor size was examined twice per week and the endpoint for this study was Day 59.

CDK4/CyclinD1 = CDK4/CyclinD1 (Homo sapiens, UniProt P11802); assay: CDK4/cyclinD1 kinase assay (Nanosyn, Caliper microfluidic kinase detection); format: biochemical; settings: read-out: CDK4/CycD1 IC50
CDK4/CyclinD1, sequence (P11802 whole entry, species assumed): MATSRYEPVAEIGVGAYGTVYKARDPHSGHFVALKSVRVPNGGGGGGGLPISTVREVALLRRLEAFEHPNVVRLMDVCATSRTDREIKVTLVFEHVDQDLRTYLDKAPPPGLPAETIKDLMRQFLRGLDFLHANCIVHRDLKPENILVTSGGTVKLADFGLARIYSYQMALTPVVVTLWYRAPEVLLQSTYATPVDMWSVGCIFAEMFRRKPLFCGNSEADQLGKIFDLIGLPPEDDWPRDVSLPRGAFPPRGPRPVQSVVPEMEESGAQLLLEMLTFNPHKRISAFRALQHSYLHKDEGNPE
CDK4/CyclinD1, sequence (P24385 whole entry partner, species assumed): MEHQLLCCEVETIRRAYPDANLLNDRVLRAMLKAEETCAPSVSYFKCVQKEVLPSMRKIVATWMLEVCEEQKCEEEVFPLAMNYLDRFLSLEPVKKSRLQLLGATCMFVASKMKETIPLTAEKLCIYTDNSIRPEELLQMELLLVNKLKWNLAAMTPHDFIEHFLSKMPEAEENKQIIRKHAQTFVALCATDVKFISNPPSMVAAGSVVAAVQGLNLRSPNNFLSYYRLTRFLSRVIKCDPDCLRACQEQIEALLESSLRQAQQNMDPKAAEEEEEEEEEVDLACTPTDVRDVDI
Method: The assays were performed using microfluidic kinase detection technology (Caliper Assay Platform). The compounds were tested in 12-point dose-response format in singlicate at Km for ATP. Phosphoacceptor substrate peptide concentration used was 1 μM for all assays and Staurosporine was used as the reference compound for all assays. Specifics of each assay are as described below:
CDK4/CyclinD1: Enzyme concentration: 1 nM; ATP concentration: 200 μM; Incubation time: 10 hr.

[7] = test system: small cell lung cancer cell lines; settings: Hamilton et al., cited from earlier work; for cytotoxic effect in combination with topotecan (in words): Journal of Cancer Therapy (2013); for cytotoxic / chemosensitizing effect in combination with various camptothecin derivatives (in words): Molecules (2014), rubitecan, 9AC, topotecan, SN38, CPT109
CDK2/CyclinE = CDK2/CyclinE (Homo sapiens, UniProt P24941); assay: CDK2/cyclinE kinase assay (Nanosyn, Caliper); format: biochemical; settings: Table 2
[8] = Group 6: Compound T vehicle and topotecan 0.6 mg/kg IP qdx5x4
[9] = Table 2, 12-point dose-response, ATP at Km (200 μM), 10 hr

O=C1NCC2(CCCCC2)n2c1cc1cnc(Nc3ccc(N4CCC(N5CCOCC5)CC4)cn3)nc12 [Compound U]
EC50 (HS68 cells; Homo sapiens, Hs68, HS68 cells): 0.025 µM | EC50 [1]: > 3 µM | EC50 [2]: > 3 µM | EC50 [3]: 0.07 µM | AUC 0-inf (uM * h) i.v. [4]: 0.76 µM·h | AUC (uM * h) p.o. [4]: 3.3 µM·h | Cmax [4]: 4.2 µM | Tmax (h) p.o. [4]: 0.5 h | t1/2 (h) p.o. ([4]; 30 mg/kg): 3 h | EC50 [5]: 0.059 µM

CC[C@@]1(O)C(=O)OCc2c1cc1n(c2=O)Cc2cc3c(CN(C)C)c(O)ccc3nc2-1 [topotecan, reference compound]
activity toward NCI-H69 xenografts / tumor volume (in words) ([6]; Compound T alone 100 mg/kg, topotecan 0.6 mg/kg, combination with each Compound T dose (100, 50 or 10 mg/kg), FIG. 16): active and reduced tumor volumes | CR (tumor volume < 15 mm^3) [6, 8]: 0 | LTS (individual tumor volume < volume endpoint at study time endpoint) [6, 8]: 1 | MTTE ± SD (timepoint in days to reach designated tumor volume or time endpoint) [6, 8]: 52 ± 7 days | PR (%) (tumor volume ≥ 50% regression versus Day 0) [6, 8]: 0% | T-C (difference in days between MTTE of treatment and control groups) [6, 8]: 34 days | TFS (complete responder at study endpoint) [6, 8]: 0 | survival versus vehicle or Compound T only (in words) ([6]; topotecan 0.6 mg/kg, with or without Compound T, FIG. 15): survived significantly longer than mice treated with vehicle or Compound T only

C[C@H]1CN(c2ccc(Nc3ncc4cc5n(c4n3)C3(CCCCC3)CNC5=O)nc2)CCN1C [R]
EC50 (HS68 cells; Homo sapiens, Hs68, HS68 cells): 0.07 µM | EC50 [1]: 2.63 µM | IC50 (CDK4/CyclinD1; [9]): 0.0005 µM | EC50 [2]: > 3 µM | EC50 [3]: 0.036 µM | EC50 [5]: 0.05 µM

CN(C)C1CCN(c2ccc(Nc3ncc4cc5n(c4n3)C3(CCCCC3)CNC5=O)nn2)CC1 [SS]
EC50 (HS68 cells; Homo sapiens, Hs68, HS68 cells): 0.08 µM | EC50 [1]: 1.66 µM | IC50 (CDK4/CyclinD1; [9]): 0.0008 µM | EC50 [2]: 2.95 µM | EC50 [3]: 0.094 µM | EC50 [5]: 0.053 µM

O=C1NCC2(CCCCC2)n2c1cc1cnc(Nc3ccc(N4CCNCC4)cn3)nc12 [Compound Q]
EC50 (HS68 cells; Homo sapiens, Hs68, HS68 cells): 0.1 µM | EC50 [1]: 2.61 µM | EC50 [2]: > 3 µM | EC50 [3]: 0.049 µM | AUC 0-inf (uM * h) i.v. [4]: 0.95 µM·h | AUC (uM * h) p.o. [4]: 0.15 µM·h | Cmax [4]: 0.16 µM | Tmax (h) p.o. [4]: 0.5 h | t1/2 (h) p.o. [4]: 0.8 h | EC50 [5]: 0.035 µM

CCN(CC)C1CCN(c2ccc(Nc3ncc4cc5n(c4n3)C3(CCCCC3)CNC5=O)nc2)CC1 [CC]
EC50 (HS68 cells; Homo sapiens, Hs68, HS68 cells): 0.09 µM | EC50 [1]: > 3 µM | IC50 (CDK4/CyclinD1; [9]): 0.0016 µM | EC50 [2]: > 3 µM | EC50 [3]: 0.05 µM | EC50 [5]: 0.038 µM

CC[C@H](CO)Nc1nc(NCc2ccccc2)c2ncn(C(C)C)c2n1 [roscovitine]
cytotoxic effect in combination with topotecan (in words) [7]: synergistic cytotoxic effect | cytotoxic / chemosensitizing effect in combination with various camptothecin derivatives (in words) [7]: synergistic cytotoxic effect

CC1(C)CN(c2ccc(Nc3ncc4cc5n(c4n3)C3(CCCCC3)CNC5=O)nc2)CCN1CC1CC1 [H]
EC50 (HS68 cells; Homo sapiens, Hs68, HS68 cells): 0.085 µM | EC50 [1]: 1.31 µM | IC50 (CDK4/CyclinD1; [9]): 0.0015 µM | EC50 [2]: 2.04 µM | EC50 [3]: 0.085 µM | EC50 [5]: 0.12 µM

CC(C)N1CCN(C(=O)c2ccc(Nc3ncc4cc5n(c4n3)C3(CCCCC3)CNC5=O)nc2)CC1 [II]
EC50 (HS68 cells; Homo sapiens, Hs68, HS68 cells): 0.04 µM | EC50 [1]: > 3 µM | IC50 (CDK4/CyclinD1; [9]): 0.002 µM | EC50 [2]: > 3 µM | EC50 [3]: 0.094 µM | EC50 [5]: 0.033 µM

CC(=O)c1c(C)c2cnc(Nc3ccc(N4CCNCC4)cn3)nc2n(C2CCCC2)c1=O [PD0332991, palbociclib]
cytotoxic / chemosensitizing effect in combination with various camptothecin derivatives (in words) [7]: low chemosensitizing activity

CC1(C)CN(c2ccc(Nc3ncc4cc5n(c4n3)C3(CCCCC3)CNC5=O)nc2)CCN1 [I]
EC50 (HS68 cells; Homo sapiens, Hs68, HS68 cells): 0.08 µM | EC50 [1]: 1.06 µM | IC50 (CDK4/CyclinD1; [9]): 0.002 µM | EC50 [2]: 2.95 µM | EC50 [3]: 0.061 µM | EC50 [5]: 0.04 µM

Cn1cnc2c(NCc3ccccc3)nc(NCCO)nc21 [olomoucine]
cytotoxic effect in combination with topotecan (in words) [7]: synergistic cytotoxic effect | cytotoxic / chemosensitizing effect in combination with various camptothecin derivatives (in words) [7]: synergistic cytotoxic effect

CN1CCN(c2ccc(Nc3ncc4cc5n(c4n3)C3(CCCCC3)CNC5=O)nc2)CC1(C)C [D]
EC50 (HS68 cells; Homo sapiens, Hs68, HS68 cells): 0.05 µM | EC50 [1]: 1.67 µM | IC50 (CDK4/CyclinD1; [9]): 0.0009 µM | EC50 [2]: 2.91 µM | EC50 [3]: 0.057 µM | EC50 [5]: 0.046 µM

CCN(CC)C1CCN(c2ccc(Nc3ncc4cc5n(c4n3)C3(CCCCC3)CNC5=O)nc2)C1 (stereo not shown) [UU]
EC50 (HS68 cells; HS68 cells): 0.3 µM | Fold Selectivity (CDK2/CycE/CDK4) (CDK2/CyclinE): 542 | IC50 (CDK2/CyclinE; ATP 100 μM, 1 hr, read-out: CDK2/CycE IC50): 3.96 µM | IC50 (CDK4/CyclinD1): 0.0073 µM
